Assay results: patent US4436751A, “Nitrobenzyl monates antibacterial compounds” (Beecham Group Limited, priority 1980, dated 1984)
≈ marks a conversion by molar mass, not a printed value. Like-named read-outs stand apart in the source and are kept apart here.

Experiments:
Type in all cases: cell-based
[1] = tested on: M. suipneumoniae NB12; assay: Anti-mycoplasmal MIC in vitro, Friis broth agarose (Table 1); conditions: Mesomycoplasma hyopneumoniae
[2] = tested on: M. suipneumoniae JF 435; assay: as above; conditions: Mesomycoplasma hyopneumoniae, JF435, 144 h
[3] = tested on: M. suipneumoniae HR(2); assay: as above; conditions: Mesomycoplasma hyopneumoniae, 144 h
[4] = tested on: M. suipneumoniae J2206/183b; assay: as above; conditions: Mesomycoplasma hyopneumoniae, 144 h
[5] = tested on: M. suipneumoniae TAM 6N; assay: as above; conditions: Mesomycoplasma hyopneumoniae, TAM6N, 144 h
[6] = tested on: M. suipneumoniae NCTC 10110; assay: as above; conditions: Mesomycoplasma hyopneumoniae, NCTC10110, 144 h
[7] = tested on: M. hyorhinis ATCC 25021; assay: as above; conditions: Mesomycoplasma hyorhinis, ATCC25021, 144 h
[8] = tested on: M. hyosynoviae ATOC 25591; assay: as above; conditions: 144 h
[9] = tested on: M. dispar RCTC 10125; assay: as above; conditions: 144 h
[10] = tested on: Bacillus subtilis 6633; assay: Human bacteria MIC, nutrient agar with chocolated horse blood (Table 3)
Procedure: (§1) The values were determined by serial dilutions in nutrient agar with 5% chocolated horse blood after incubations for 18 hours at 37° C.

[11] = tested on: Corynebacterium xerosis 9755; assay: as above
Procedure: as §1

[12] = tested on: E. Coli NCTC 10418; assay: as above; conditions: Escherichia coli
Procedure: as §1

[13] = tested on: E. coli ESS; assay: as above; conditions: Escherichia coli
Procedure: as §1

[14] = tested on: Haemophilus influenzae Q1; assay: as above
Procedure: as §1

[15] = tested on: K. aerogenes A; assay: as above; conditions: Klebsiella aerogenes
Procedure: as §1

[16] = tested on: Neisseria catarrhalis 1502; assay: as above
Procedure: as §1

[17] = tested on: P. mirabilis 889; assay: as above
Procedure: as §1

[18] = tested on: Pasteurella multocida 1633; assay: as above
Procedure: as §1

[19] = tested on: Ps. aeruginosa NCTC 10662; assay: as above; conditions: Pseudomonas aeruginosa
Procedure: as §1

[20] = tested on: Sarcina lutea 8340; assay: as above
Procedure: as §1

[21] = tested on: Staph. aureus Oxford; assay: as above; conditions: Staphylococcus aureus
Procedure: as §1

[22] = tested on: Staph. aureus Russell; assay: as above; conditions: Staphylococcus aureus
Procedure: as §1

[23] = tested on: Staph. aureus W2827; assay: as above; conditions: Staphylococcus aureus
Procedure: as §1

[24] = tested on: Strep. 641848-C; assay: as above
Procedure: as §1

[25] = tested on: Strep. faecalis 1; assay: as above
Procedure: as §1

[26] = tested on: Strep. pyogenes R80/421-A; assay: as above; conditions: Streptococcus pyogenes
Procedure: as §1

[27] = tested on: Strep. pneumoniae CN33; assay: as above; conditions: Streptococcus pneumoniae, CN33, 18 h
Procedure: as §1

[28] = tested on: M. pneumoniae ATCC 15492; assay: Anti-mycoplasmal MIC in vitro, Friis broth agarose (Table 1); conditions: Mycoplasmoides pneumoniae, ATCC15492, 144 h
[29] = Corynebacterium xerosis 9755, nutrient agar 5% chocolated horse blood, 18 hours 37° C., read-out: MIC
[30] = NCTC10418, E. coli NCTC 10418, nutrient agar 5% chocolated horse blood, 18 hours 37° C., read-out: MIC
[31] = E. coli ESS, nutrient agar 5% chocolated horse blood, 18 hours 37° C., read-out: MIC
[32] = K. aerogenes A, nutrient agar 5% chocolated horse blood, 18 hours 37° C., read-out: MIC
[33] = Proteus mirabilis, P. mirabilis 889, nutrient agar 5% chocolated horse blood, 18 hours 37° C., read-out: MIC
[34] = Pasteurella multocida 1633, nutrient agar 5% chocolated horse blood, 18 hours 37° C., read-out: MIC
[35] = NCTC10662, Ps. aeruginosa NCTC 10662, nutrient agar 5% chocolated horse blood, 18 hours 37° C., read-out: MIC
[36] = Micrococcus luteus, Sarcina lutea 8340, nutrient agar 5% chocolated horse blood, 18 hours 37° C., read-out: MIC
[37] = Staph. aureus Oxford, nutrient agar 5% chocolated horse blood, 18 hours 37° C., read-out: MIC
[38] = Staph. aureus Russell, nutrient agar 5% chocolated horse blood, 18 hours 37° C., read-out: MIC
[39] = Enterococcus faecalis, Strep. faecalis 1, nutrient agar 5% chocolated horse blood, 18 hours 37° C., read-out: MIC
[40] = Haemophilus influenzae, Q1, 18 h

C/C(=C\C(=O)OCc1cccc([N+](=O)[O-])c1)CC1OCC(C/C=C/C(C)C(C)O)C(O)C1O (centres unmarked) [Example 5, m-nitrobenzyl monate C]
MIC ([1]; NB12, 144 h): 0.25 µg/mL (≈ 0.539 µM)
MIC [2]: 0.25 µg/mL (≈ 0.539 µM)
MIC [3]: 0.25 µg/mL (≈ 0.539 µM)
MIC ([4]; J2206/183B): 0.25 µg/mL (≈ 0.539 µM)
MIC [5]: 0.25 µg/mL (≈ 0.539 µM)
MIC [6]: 0.25 µg/mL (≈ 0.539 µM)
MIC [7]: 0.25 µg/mL (≈ 0.539 µM)
MIC [8]: 0.25 µg/mL (≈ 0.539 µM)
MIC [9]: 0.1 µg/mL (≈ 0.216 µM)
MIC ([10]; Bacillus subtilis 6633, nutrient agar 5% chocolated horse blood, 18 hours 37° C., read-out: MIC): 1 µg/mL (≈ 2.16 µM)
MIC [11, 29]: > 100 µg/mL
MIC [12, 30]: > 100 µg/mL
MIC [13, 31]: 10 µg/mL (≈ 21.6 µM)
MIC ([14]; Haemophilus influenzae Q1, nutrient agar 5% chocolated horse blood, 18 hours 37° C., read-out: MIC): 1 µg/mL (≈ 2.16 µM)
MIC [15, 32]: > 100 µg/mL
MIC ([16]; Neisseria catarrhalis 1502, nutrient agar 5% chocolated horse blood, 18 hours 37° C., read-out: MIC): 1 µg/mL (≈ 2.16 µM)
MIC [17, 33]: > 100 µg/mL
MIC [18, 34]: 25 µg/mL (≈ 53.9 µM)
MIC [19, 35]: > 100 µg/mL
MIC [20, 36]: > 100 µg/mL
MIC [21, 37]: 2.5 µg/mL (≈ 5.39 µM)
MIC [22, 38]: 2.5 µg/mL (≈ 5.39 µM)
MIC ([23]; W2827, 18 h): 5 µg/mL (≈ 10.8 µM)
MIC ([24]; 18 h): 5 µg/mL (≈ 10.8 µM)
MIC [25, 39]: > 100 µg/mL
MIC ([26]; Strep. pyogenes R80/421-A, nutrient agar 5% chocolated horse blood, 18 hours 37° C., read-out: MIC): 1 µg/mL (≈ 2.16 µM)

C/C(=C\C(=O)OCc1ccc([N+](=O)[O-])c([N+](=O)[O-])c1)CC1OCC(CC2OC2C(C)C(C)O)C(O)C1O (centres unmarked) [Example 9, 3,4-dinitrobenzyl monate A]
MIC ([1]; NB12, 144 h): 0.25 µg/mL (≈ 0.477 µM)
MIC [2]: 1 µg/mL (≈ 1.91 µM)
MIC [3]: 0.5 µg/mL (≈ 0.953 µM)
MIC ([4]; J2206/183B): 1 µg/mL (≈ 1.91 µM)
MIC [5]: 0.5 µg/mL (≈ 0.953 µM)
MIC [6]: 0.5 µg/mL (≈ 0.953 µM)
MIC [7]: 0.25 µg/mL (≈ 0.477 µM)
MIC [8]: 0.5 µg/mL (≈ 0.953 µM)
MIC [9]: 0.025 µg/mL (≈ 0.0477 µM)
MIC ([10]; Bacillus subtilis, 6633, 18 h): 0.5 µg/mL (≈ 0.953 µM)
MIC ([11]; Corynebacterium xerosis, 9755, 18 h): > 100 µg/mL
MIC ([12]; NCTC10418, 18 h): 50 µg/mL (≈ 95.3 µM)
MIC ([13]; 18 h): 1 µg/mL (≈ 1.91 µM)
MIC [14, 40]: 0.25 µg/mL (≈ 0.477 µM)
MIC ([15]; 18 h): 100 µg/mL (≈ 191 µM)
MIC ([16]; Neisseria, 1502, 18 h): 0.05 µg/mL (≈ 0.0953 µM)
MIC ([17]; Proteus mirabilis, 889, 18 h): 50 µg/mL (≈ 95.3 µM)
MIC ([18]; Pasteurella multocida, 1633, 18 h): 2.5 µg/mL (≈ 4.77 µM)
MIC ([19]; NCTC10662, 18 h): > 100 µg/mL
MIC ([20]; Micrococcus luteus, 8340, 18 h): > 100 µg/mL
MIC ([21]; 18 h): 1 µg/mL (≈ 1.91 µM)
MIC ([22]; 18 h): 2.5 µg/mL (≈ 4.77 µM)
MIC ([23]; W2827, 18 h): 1 µg/mL (≈ 1.91 µM)
MIC ([24]; 18 h): 2.5 µg/mL (≈ 4.77 µM)
MIC ([25]; Enterococcus faecalis, 1, 18 h): 25 µg/mL (≈ 47.7 µM)
MIC [27]: 2.5 µg/mL (≈ 4.77 µM)
MIC ([26]; R80/421A, 18 h): 0.25 µg/mL (≈ 0.477 µM)

C/C(=C\C(=O)OC(C)c1cccc([N+](=O)[O-])c1)CC1OCC(CC2OC2C(C)C(C)O)C(O)C1O (centres unmarked) [Example 3, 1-(m-nitrophenyl)ethyl monate A]
MIC ([1]; 144 h, M. suipneumoniae NB12, in vitro, 6 days 37° C., read-out: MIC): 0.25 µg/mL (≈ 0.507 µM)
MIC ([2]; M. suipneumoniae JF 435, in vitro, 6 days 37° C., read-out: MIC): 0.25 µg/mL (≈ 0.507 µM)
MIC ([3]; M. suipneumoniae HR(2), in vitro, 6 days 37° C., read-out: MIC): 0.25 µg/mL (≈ 0.507 µM)
MIC ([4]; M. suipneumoniae J2206/183b, in vitro, 6 days 37° C., read-out: MIC): 0.25 µg/mL (≈ 0.507 µM)
MIC ([5]; M. suipneumoniae TAM 6N, in vitro, 6 days 37° C., read-out: MIC): 0.25 µg/mL (≈ 0.507 µM)
MIC ([6]; M. suipneumoniae NCTC 10110, in vitro, 6 days 37° C., read-out: MIC): 0.25 µg/mL (≈ 0.507 µM)
MIC ([7]; M. hyorhinis ATCC 25021, in vitro, 6 days 37° C., read-out: MIC): 0.1 µg/mL (≈ 0.203 µM)
MIC ([8]; M. hyosynoviae ATOC 25591, in vitro, 6 days 37° C., read-out: MIC): 0.25 µg/mL (≈ 0.507 µM)
MIC [9]: 0.05 µg/mL (≈ 0.101 µM)
MIC [28]: 5 µg/mL (≈ 10.1 µM)
MIC ([10]; Bacillus subtilis, 6633, 18 h): 1 µg/mL (≈ 2.03 µM)
MIC [11, 29]: > 100 µg/mL
MIC [12, 30]: > 100 µg/mL
MIC [13, 31]: 10 µg/mL (≈ 20.3 µM)
MIC [14, 40]: 1 µg/mL (≈ 2.03 µM)
MIC [15, 32]: > 100 µg/mL
MIC ([16]; Neisseria, 1502, 18 h): 1 µg/mL (≈ 2.03 µM)
MIC [17, 33]: > 100 µg/mL
MIC [18, 34]: 25 µg/mL (≈ 50.7 µM)
MIC [19, 35]: > 100 µg/mL
MIC [20, 36]: > 100 µg/mL
MIC [21, 37]: 2.5 µg/mL (≈ 5.07 µM)
MIC [22, 38]: 2.5 µg/mL (≈ 5.07 µM)
MIC ([23]; Staph. aureus W2827, nutrient agar 5% chocolated horse blood, 18 hours 37° C., read-out: MIC): 5 µg/mL (≈ 10.1 µM)
MIC ([24]; Strep. 641848-C, nutrient agar 5% chocolated horse blood, 18 hours 37° C., read-out: MIC): 2.5 µg/mL (≈ 5.07 µM)
MIC [25, 39]: > 100 µg/mL
MIC ([26]; R80/421A, 18 h): 1 µg/mL (≈ 2.03 µM)
